What was measured:
[1] = Difference of pharmacokinetic parameters between intravenous microdialysis and standard plasma sampling; settings: intravenous microdialysis minus standard plasma, mean (95% confidence interval)
Protocol: (§1) For the data analysis, the microdialysate concentrations were attributed to the midpoint of the sampling interval. The pharmacokinetic parameters and statistical analysis were performed using STATA (v. 17.0 StataCorp, College Station, TX, USA) for continuous intravenous microdialysis samples and standard plasma samples separately. […] AUC was calculated using the linear-up/log-down method. Cmax was calculated as the maximum of all the concentrations and Tmax as the time to reach Cmax. For comparison between the two sampling methods, the difference of pharmakokinetic parameters between methods is calculated including 95% confidence intervals. The Kenward–Roger approximation method was used due to small sample size, as a correction for degrees of freedom. Model assumptions were tested by visual diagnosis of residuals, fitted values, and estimates of random effects.

[2] = Pharmacokinetics from standard plasma sampling (central venous catheter), free unbound concentrations; settings: vancomycin 1 g iv infused over 100 min, co-administered with meropenem, eight female pigs, standard plasma samples, mean (95% confidence interval)
From the text: (§2) Eight female pigs, Danish Landrace Breed, weight 78–82 kg, were included. […] Intravenous microdialysis catheters were inserted into the left subclavian vein, guided by ultrasound and using a peripheral venous introducer. On the opposite side of the throat, a central venous catheter was placed for standard plasma sampling (Figure 3). At the end of the sampling period, all pigs were euthanized by intravenous injection of pentobarbital.
After placement, the intravenous microdialysis catheters were perfused with 0.9% NaCl followed by a 20 min tissue equilibrium period. […] Dialysates were collected during an 8 h sampling period every 30 min from time 0 to 240 min and every 60 min from time 240 to 480 min, resulting in 12 dialysates per pig. Plasma samples, each containing approximately 4 mL, were collected from the central venous catheter in the middle of every dialysate sampling interval to EDTA tubes. […] After a 30 min equilibrium period, one calibration sample was collected over a 40 min interval. Collected plasma samples were stored at 5 °C for a maximum of 6 h before being centrifuged at 3000× g for 10 min. Dialysates and plasma samples were frozen at −80 °C until analysis.
The principle of this analysis is that (in competition) the free drug competes with a drug–enzyme conjugate for the antibody (File S1). […] Meropenem was quantified using ultra-high-performance liquid chromatography (UHPLC). Quantification was performed after ultrafiltration of the plasma samples using a centrifree ultrafiltration device with a nominal molecular weight limit of 30 kDa (Millipore). Some 5 µL of the filtrate was prepared for analysis.
as §1

[3] = Pharmacokinetics from continuous intravenous microdialysis sampling (subclavian vein), free unbound concentrations; settings: vancomycin 1 g iv infused over 100 min, co-administered with meropenem, eight female pigs, mean (95% confidence interval)
Protocol: In the microdialysis system, complete equilibrium will not occur across the semipermeable membrane, due to the constant flow. As such, the obtained concentration in the dialysates represents a fraction of the actual concentration. This fraction is referred to as the relative recovery, and it is essential to calculate to determine the absolute concentration of an analyte. In this study, calibration using retrodialysis by drug was used. Relative recovery was calculated by the following equation:(1) Relative recovery %=100 ·1−Cdialysate/Cperfusate
(2) Cplasma=100 ·Cdialysate/Relative recovery %
All the microdialysis equipment was acquired from M Dialysis AB (Stockholm, Sweden), and consisted of 67 Intravenous Microdialysis Catheters with a membrane length of 30 mm, a 20 kD cut-off, and 107 Microdialysis pumps set at a flow rate of 1 μL/min.
as §2
After placement, the intravenous microdialysis catheters were perfused with 0.9% NaCl followed by a 20 min tissue equilibrium period. […]
A 3 µL sample volume was introduced into the UHPLC system with a C18 column and further analyzed with mass spectrometry. […]
For the data analysis, the microdialysate concentrations were attributed to the midpoint of the sampling interval. […] AUC was calculated using the linear-up/log-down method. Cmax was calculated as the maximum of all the concentrations and Tmax as the time to reach Cmax. For comparison between the two sampling methods, the difference of pharmakokinetic parameters between methods is calculated including 95% confidence intervals. […]

Row | SMILES | Tmax, difference between methods ([1]; meropenem) | Cmax ([2]; homogeneous enzyme immunoassay) | AUC0–8h ([2]; homogeneous enzyme immunoassay, non-compartmental) | T1/2 [2] | Tmax [2] | Tmax ([3]; intravenous microdialysis samples, concentrations attributed to midpoint of sampling interval) | T1/2 ([3]; intravenous microdialysis samples) | Cmax ([3]; intravenous microdialysis, 1 μL/min, UHPLC-MS/MS, recovery-corrected) | T1/2, difference between methods ([1]; vancomycin) | Tmax, difference between methods ([1]; vancomycin)
1 | C[C@@H](O)[C@H]1C(=O)N2C(C(=O)O)=C(S[C@@H]3CN[C@H](C(=O)N(C)C)C3)[C@H](C)[C@H]12 [Meropenem, meropenem] | 5 (−8; 18) min | – | – | – | – | – | – | – | – | –
2 | CN[C@H](CC(C)C)C(=O)N[C@H]1C(=O)N[C@@H](CC(N)=O)C(=O)N[C@H]2C(=O)N[C@H]3C(=O)N[C@H](C(=O)N[C@H](C(=O)O)c4cc(O)cc(O)c4-c4cc3ccc4O)[C@H](O)c3ccc(c(Cl)c3)Oc3cc2cc(c3O[C@@H]2O[C@H](CO)[C@@H](O)[C@H](O)[C@H]2O[C@H]2C[C@](C)(N)[C@H](O)[C@H](C)O2)Oc2ccc(cc2Cl)[C@H]1O [Vancomycin, vancomycin] | – | 36 (24; 49) µg/mL | 7014 (5779; 8249) min µg/mL | 197 (124; 270) min | 85 (72; 98) min | 110 (97; 123) min | 242 (162; 322) min | 14 (2; 26) µg/mL | 45 (−55; 146) min | 25 (4.3; 46) min

From PMC10135263 (Antibiotics, 2023)
